# Columns and labels:
# [1] = target: T1, pseudo-kinase domain (JH2, amino-acids 536-812 with 3 surface mutations W659A, W777A, F794H) of human Wild Type JAK2 (Homo sapiens, UniProt O60674, F794H/W659A/W777A); assay: JAK2 LanthaScreen JH2-WT Binding Assay; settings: JAK2 JH2-WT (0.145 nM), 50 nM Fluorescent JAK2-JH2 Tracer, 1 hour at 25° C.; read-out: JH2 BIND WT
# T1 construct: pseudo-kinase domain (JH2, amino-acids 536-812 with 3 surface mutations W659A, W777A, F794H); His (C); Avi (biotinylated) (C); purchased BPS Bioscience 79463; host or cells: baculovirus expression system
# T1 sequence (O60674 536-812 W659A/W777A/F794H): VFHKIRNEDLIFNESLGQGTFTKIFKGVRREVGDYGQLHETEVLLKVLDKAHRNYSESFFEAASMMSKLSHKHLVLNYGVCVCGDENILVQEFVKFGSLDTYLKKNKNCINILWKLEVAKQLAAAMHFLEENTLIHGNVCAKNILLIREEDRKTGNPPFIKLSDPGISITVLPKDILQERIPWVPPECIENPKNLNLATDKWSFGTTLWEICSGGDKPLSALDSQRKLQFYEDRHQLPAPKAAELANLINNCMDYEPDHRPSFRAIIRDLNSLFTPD
# Experimental: Example B. JAK2 LanthaScreen JH2-WT Binding Assay
# (§1) JAK2 JH2-WT binding assay utilizes pseudo-kinase domain (JH2, amino-acids 536-812 with 3 surface mutations W659A, W777A, F794H) of human Wild Type JAK2 expressed as C-terminal His-Avi-tagged, biotinylated protein in a baculovirus expression system (BPS Bioscience, Catalog #79463). The assay was conducted in black 384-well polystyrene plates in a final reaction volume of 20 μL. JAK2 JH2-WT (0.145 nM) was incubated with compounds (100 nL serially diluted in DMSO) in the presence of 50 nM Fluorescent JAK2-JH2 Tracer (MedChem Express Catalog #HY-102055) and 0.25 nM Streptavidin-Tb cryptate (Cisbio Part #610SATLB) in assay buffer (50 mM Tris, pH=7.5, 10 mM MgCl2, 0.01% Brij-35, 0.1% BSA, 1 mM EGTA, 5% Glycerol and 5 mM DTT). Non-specific binding was accessed in the presence of 2 mM ATP. After incubation for 1 hour at 25° C., LanthaScreen signals were read on a PHERAstar FS plate reader (BMG LABTECH). Data was analyzed with IDBS XLfit and GraphPad Prism 5.0 software using a four parameter dose response curve to determine IC50 for each compound.
# [2] = target: T2, catalytic domain (JH1, amino acids 826-1132) of human JAK2 (Homo sapiens, UniProt O60674); assay: JAK2 LanthaScreen JH1 Binding Assay; settings: JAK2 JH1 (1.5 nM), 50 nM fluorescent JAK2-JH1 tracer, 2 hours at 25° C.; read-out: JH1 BIND
# T2 construct: catalytic domain (JH1, amino acids 826-1132) of human JAK2; FLAG (N); purchased Carna Biosciences 08-445-20N; host or cells: baculovirus expression system
# T2 sequence (O60674 826-1132): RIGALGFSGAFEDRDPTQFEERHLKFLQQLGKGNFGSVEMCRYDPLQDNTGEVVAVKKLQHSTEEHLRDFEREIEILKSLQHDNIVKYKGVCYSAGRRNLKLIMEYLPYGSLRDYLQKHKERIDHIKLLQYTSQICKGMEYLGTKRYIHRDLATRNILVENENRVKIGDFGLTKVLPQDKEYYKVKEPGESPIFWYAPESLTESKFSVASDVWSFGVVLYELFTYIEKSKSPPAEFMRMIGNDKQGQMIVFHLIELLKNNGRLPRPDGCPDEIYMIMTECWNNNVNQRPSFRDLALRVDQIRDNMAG
# Experimental: Example A. JAK2 LanthaScreen JH1 Binding Assay
# JAK2 JH1 binding assay utilizes catalytic domain (JH1, amino acids 826-1132) of human JAK2 expressed as N-terminal FLAG-tagged, biotinylated protein in a baculovirus expression system (Carna Biosciences, Product #08-445-20N). The assay was conducted in black 384-well polystyrene plates in a final reaction volume of 20 μL. JAK2 JH1 (1.5 nM) was incubated with compounds (100 nL serially diluted in DMSO) in the presence of 50 nM fluorescent JAK2-JH1 tracer and 0.5 nM Streptavidin-Tb cryptate (Cisbio Part #610SATLB) in assay buffer (50 mM Tris, pH=7.5, 10 mM MgCl2, 0.01% Brij-35, 0.1% BSA, 1 mM EGTA, 5% Glycerol and 5 mM DTT). Non-specific binding was accessed in the presence of 2 mM ATP. After incubation for 2 hours at 25° C., LanthaScreen signals were read on a PHERAstar FS plate reader (BMG LABTECH). Data was analyzed with IDBS XLfit and GraphPad Prism 5.0 software using a four parameter dose response curve to determine IC50 for each compound.
# [3] = target: T3, pseudo-kinase domain (JH2, amino-acids 536-812 with 3 surface mutations W659A, W777A, F794H) of human V617F mutant JAK2 (Homo sapiens, UniProt O60674, F794H/V617F/W659A/W777A); assay: JAK2 LanthaScreen JH2-V617F Binding Assay; settings: JAK2 JH2-V617F (0.26 nM), 50 nM Fluorescent JAK2-JH2 Tracer, 1 hour at 25° C.; read-out: JH2 BIND V617F
# T3 construct: pseudo-kinase domain (JH2, amino-acids 536-812 with 3 surface mutations W659A, W777A, F794H); His (C); Avi (biotinylated) (C); purchased BPS Bioscience 79498; host or cells: baculovirus expression system
# T3 sequence (O60674 536-812 V617F/W659A/W777A/F794H): as the sequence (O60674 536-812 W659A/W777A/F794H) above, with V82F counted along it
# Experimental: Example C. JAK2 LanthaScreen JH2-V617F Binding Assay
# as §1, with “JH2-V617F” for “JH2-WT”, “V617F mutant” for “Wild Type”, “#79498).” for “#79463).”, “JH2-V617F (0.26” for “JH2-WT (0.145”
structure (smiles),measurement,setting,value
"Cn1c(=O)n(-c2ccccc2)c2c3cc(-c4ccc(CN5CCC(S(C)(=O)=O)CC5)cc4)[nH]c3ncc21 [Example 1, 3-Methyl-7-(4-((4-(methylsulfonyl)piperidin-1-yl)methyl)phenyl)-1-phenyl-3,6-dihydroimidazo[4,5-d]pyrrolo[2,3-b]pyridin-2(1H)-one]",IC50,[1],10 to 100 nM
same,IC50,[2],10 to 100 nM
same,IC50,[3],100 to 500 nM
"COc1ccc(-n2c(=O)n(C)c3cnc4[nH]c(-c5ccc(CN6CCC(S(C)(=O)=O)CC6)cc5)cc4c32)cc1 [Example 2, 1-(4-Methoxyphenyl)-3-methyl-7-(4-((4-(methylsulfonyl)piperidin-1-yl)methyl)phenyl)-3,6-dihydroimidazo[4,5-d]pyrrolo[2,3-b] pyridin-2(1H)-one]",IC50,[1],10 to 100 nM
same,IC50,[2],10 to 100 nM
same,IC50,[3],100 to 500 nM
"Cn1c(=O)n(-c2ccc3occc3c2)c2c3cc(-c4ccc(CN5CCC(S(C)(=O)=O)CC5)cc4)[nH]c3ncc21 [Example 3, 1-(Benzofuran-5-yl)-3-methyl-7-(4-((4-(methylsulfonyl)piperidin-1-yl)methyl)phenyl)-3,6-dihydroimidazo[4,5-d]pyrrolo[2,3-b]pyridin-2(1H)-one]",IC50,[1],10 to 100 nM
same,IC50,[2],10 to 100 nM
same,IC50,[3],10 to 100 nM
"CS(=O)(=O)C1CCN(Cc2ccc(-c3cc4c(ncc5[nH]c(=O)n(-c6ccccc6)c54)[nH]3)cc2)CC1 [Example 4, 7-(4-((4-(Methylsulfonyl)piperidin-1-yl)methyl)phenyl)-1-phenyl-3,6-dihydroimidazo [4,5-d]pyrrolo[2,3-b]pyridin-2(1H)-one]",IC50,[1],100 to 500 nM
same,IC50,[2],10 to 100 nM
same,IC50,[3],100 to 500 nM
"CS(=O)(=O)C1CCN(Cc2ccc(-c3cc4c(ncc5c4n(-c4ccccc4)c(=O)n5CCO)[nH]3)cc2)CC1 [Example 5, 3-(2-Hydroxyethyl)-7-(4-((4-(methylsulfonyl)piperidin-1-yl)methyl)phenyl)-1-phenyl-3,6-dihydroimidazo[4,5-d]pyrrolo[2,3-b]pyridin-2(1H)-one]",IC50,[1],> 1000 nM
same,IC50,[2],100 to 500 nM
same,IC50,[3],> 1000 nM
"Cn1c(=O)n(-c2ccccc2)c2c3cc(-c4cnn(C5CCS(=O)(=O)C5)c4)[nH]c3ncc21 (stereo not drawn) [Example 6, 7-(1-(1,1-Dioxidotetrahydro-thiophen-3-yl)-1H-pyrazol-4-yl)-3-methyl-1-phenyl-3,6-dihydroimidazo[4,5-d]pyrrolo[2,3-b]pyridin-2(1H)-one]",IC50,[1],100 to 500 nM
same,IC50,[2],10 to 100 nM
same,IC50,[3],100 to 500 nM
"CN(CCCS(C)(=O)=O)Cc1ccc(-c2cc3c(ncc4c3n(-c3ccccc3)c(=O)n4C)[nH]2)cc1 [Example 7, 3-Methyl-7-(4-((methyl(3-(methylsulfonyl)propyl)amino)methyl)phenyl)-1-phenyl-3,6-dihydroimidazo [4,5-d]pyrrolo[2,3-b]pyridin-2(1H)-one]",IC50,[1],100 to 500 nM
same,IC50,[2],10 to 100 nM
same,IC50,[3],100 to 500 nM
"Cn1c(=O)n(-c2ccccc2)c2c3cc(-c4ccc(CN5CCC(S(C)(=O)=O)CC5)c(F)c4)[nH]c3ncc21 [Example 8, 7-(3-Fluoro-4-((4-(methylsulfonyl)piperidin-1-yl)methyl)phenyl)-3-methyl-1-phenyl-3,6-dihydroimidazo[4,5-d]pyrrolo[2,3-b]pyridin-2(1H)-one]",IC50,[1],10 to 100 nM
same,IC50,[2],10 to 100 nM
same,IC50,[3],100 to 500 nM
"CCN1CCN(c2ccc(-c3cc4c(ncc5c4n(-c4ccccn4)c(=O)n5C)[nH]3)cc2)CC1 [Example 9, 7-(4-(4-Ethylpiperazin-1-yl)phenyl)-3-methyl-1-(pyridin-2-yl)-3,6-dihydroimidazo[4,5-d]pyrrolo[2,3-b]pyridin-2(1H)-one]",IC50,[1],> 1000 nM
same,IC50,[2],> 1000 nM
same,IC50,[3],> 1000 nM
"Cn1c(=O)n(C2CCCCC2)c2c3cc(-c4ccc(CN5CCC(S(C)(=O)=O)CC5)cc4)[nH]c3ncc21 [Example 10, 1-Cyclohexyl-3-methyl-7-(4-((4-(methylsulfonyl)piperidin-1-yl)methyl)phenyl)-3,6-dihydroimidazo[4,5-d]pyrrolo[2,3-b]pyridin-2(1H)-one]",IC50,[1],10 to 100 nM
same,IC50,[2],10 to 100 nM
same,IC50,[3],100 to 500 nM
"Cn1c(=O)n(C(C)(C)C)c2c3cc(-c4ccc(CN5CCC(S(C)(=O)=O)CC5)cc4)[nH]c3ncc21 [Example 11, 1-(tert-Butyl)-3-methyl-7-(4-((4-(methylsulfonyl)piperidin-1-yl)methyl)phenyl)-3,6-dihydroimidazo[4,5-d]pyrrolo[2,3-b]pyridin-2(1H)-one]",IC50,[1],10 to 100 nM
same,IC50,[2],10 to 100 nM
same,IC50,[3],10 to 100 nM
"Cn1c(=O)n(C2CCCCC2)c2c3cc(-c4cnn(CS(C)(=O)=O)c4)[nH]c3ncc21 [Example 12, 1-Cyclohexyl-3-methyl-7-(1-((methylsulfonyl)methyl)-1H-pyrazol-4-yl)-3,6-dihydroimidazo[4,5-d]pyrrolo[2,3-b]pyridin-2(1H)-one]",IC50,[1],10 to 100 nM
same,IC50,[2],10 to 100 nM
same,IC50,[3],100 to 500 nM
"CCn1c(=O)n(C2CCCC2)c2c3cc(-c4ccc(CN5CCC(S(C)(=O)=O)CC5)cc4)[nH]c3ncc21 [Example 13, 1-Cyclopentyl-3-ethyl-7-(4-((4-(methylsulfonyl)piperidin-1-yl)methyl)phenyl)-3,6-dihydroimidazo[4,5-d]pyrrolo[2,3-b] pyridin-2(1H)-one]",IC50,[1],> 1000 nM
same,IC50,[2],100 to 500 nM
same,IC50,[3],> 1000 nM
"Cn1cc(-c2cc3c(ncc4c3[nH]c(=O)n4C)[nH]2)cn1 [Example 14, 3-Methyl-7-(1-methyl-1H-pyrazol-4-yl)-3,6-dihydroimidazo[4,5-d]pyrrolo[2,3-b]pyridin-2(1H)-one]",IC50,[1],> 1000 nM
same,IC50,[2],100 to 500 nM
same,IC50,[3],> 1000 nM
"Cn1c(=O)n(C2CCCOC2)c2c3cc(-c4ccc(CN5CCC(S(C)(=O)=O)CC5)cc4)[nH]c3ncc21 (stereo not drawn) [Example 15, 3-Methyl-7-(4-((4-(methylsulfonyl)piperidin-1-yl)methyl)phenyl)-1-(tetrahydro-2H-pyran-3-yl)-3,6-dihydroimidazo[4,5-d]pyrrolo[2,3-b]pyridin-2(1H)-one]",IC50,[1],100 to 500 nM
same,IC50,[2],10 to 100 nM
same,IC50,[3],100 to 500 nM
"CCN1CCN(c2ccc(-c3cc4c(ncc5c4n(Cc4cnn(C)c4)c(=O)n5C)[nH]3)cc2)CC1 [Example 16, 7-(4-(4-Ethylpiperazin-1-yl)phenyl)-3-methyl-1-((1-methyl-1H-pyrazol-4-yl)methyl)-3,6-dihydroimidazo[4,5-d]pyrrolo[2,3-b]pyridin-2(1H)-one]",IC50,[1],> 1000 nM
same,IC50,[2],500 to 1000 nM
same,IC50,[3],> 1000 nM

# — US11780840B2 (Incyte Corporation, priority 2020, dated 2023)
